Assay results: patent publication US11591336B2 (Relay Therapeutics, Inc., priority 2017, dated 2023)
Structures can show the parent of a compound that is named as a salt.

Each compound was assayed against SHP2 (Homo sapiens (Human), UniProt Q06124) (assay: SHP2 Allosteric Inhibition Assay (DiFMUP prompt fluorescence)). Settings: 0.25 nM SHP2 activated with 0.5 μM peptide IRS1_pY1172(dPEG8)pY1222; substrate DiFMUP 100 μM; 25° C.
Chain of SHP2 (Q06124 whole entry): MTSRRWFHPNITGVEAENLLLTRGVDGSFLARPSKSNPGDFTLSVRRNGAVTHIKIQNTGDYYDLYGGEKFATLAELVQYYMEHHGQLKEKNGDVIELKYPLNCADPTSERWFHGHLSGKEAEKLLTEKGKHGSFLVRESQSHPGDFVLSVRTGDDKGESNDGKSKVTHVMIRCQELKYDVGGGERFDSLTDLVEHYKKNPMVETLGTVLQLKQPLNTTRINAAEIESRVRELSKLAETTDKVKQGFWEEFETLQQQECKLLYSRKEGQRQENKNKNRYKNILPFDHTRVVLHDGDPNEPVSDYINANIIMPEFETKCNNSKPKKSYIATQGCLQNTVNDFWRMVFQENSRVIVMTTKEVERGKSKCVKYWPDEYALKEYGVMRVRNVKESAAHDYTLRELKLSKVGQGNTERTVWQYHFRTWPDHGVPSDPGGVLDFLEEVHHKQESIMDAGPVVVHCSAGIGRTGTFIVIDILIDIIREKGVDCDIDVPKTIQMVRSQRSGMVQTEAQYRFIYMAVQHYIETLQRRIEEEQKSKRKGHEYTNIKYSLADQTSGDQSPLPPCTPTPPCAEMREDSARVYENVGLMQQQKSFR
Assay type: biochemical
In the case of CC1(N)CCN(c2cnc3c(N4CCCc5c(-c6nccs6)cccc54)n[nH]c3n2)CC1 [Compound 64], the IC50 is reported as under 1000 nM. In the case of CC1(CN)CCN(c2cnc3c(N4CCCc5c(-c6ccccc6)cccc54)n[nH]c3n2)CC1 [Compound 65], the IC50 is reported as under 1000 nM. For CC1(CN)CCN(c2cnc3c(N4CCCc5c(-c6cccnc6)cccc54)n[nH]c3n2)CC1 [Compound 66], the IC50 was under 1000 nM. With Cc1ccncc1-c1cccc2c1CCCN2c1n[nH]c2nc(N3CCC(C)(N)CC3)cnc12 [Compound 67] the IC50 was under 1000 nM. Compound CC1(CN)CCN(c2cnc3c(N4CCN(c5cccnc5)c5ccccc54)n[nH]c3n2)CC1 [Compound 68] has an IC50 of under 1000 nM. CC1(CN)CCN(c2cnc3c(N4CCCc5c(-c6ccc(F)cc6)cccc54)n[nH]c3n2)CC1 [Compound 69] showed an IC50 of under 1000 nM. Work on CC1(CN)CCN(c2cnc3c(N4CCCc5c(-c6ccc(F)c(F)c6)cccc54)n[nH]c3n2)CC1 [Compound 70] yielded an IC50 of under 1000 nM. For CC1(N)CCN(c2cnc3c(N4CCCc5c(-c6nc(C(=O)O)cs6)cccc54)n[nH]c3n2)CC1 [Compound 71, 2-(1-(6-(4-amino-4-methylpiperidin-1-yl)-1H-pyrazolo[3,4-b]pyrazin-3-yl)-1,2,3,4-tetrahydroquinolin-5-yl)thiazole-4-carboxylic acid], the IC50 was under 1000 nM. With CC1(CN)CCN(c2cnc3c(N4CCCc5c(-c6cc(F)c(F)c(F)c6)cccc54)n[nH]c3n2)CC1 [Compound 72] the IC50 was under 1000 nM. Work on Cc1nnc2c(-c3cccc4c3CCCN4c3n[nH]c4nc(N5CCC(C)(CN)CC5)cnc34)cccn12 [Compound 73] yielded an IC50 of under 1000 nM. With CC1(CN)CCN(c2cnc3c(N4CCCc5c(-c6cccc(Oc7ccccc7)c6)cccc54)n[nH]c3n2)CC1 [Compound 75] the IC50 was under 1000 nM. NCC1(F)CCN(c2cnc3c(N4CCCc5ncccc54)n[nH]c3n2)CC1 [Compound 76] showed an IC50 of under 1000 nM. CC1(CN)CCN(c2cnc3c(N4CCCc5cc(C#N)ccc54)n[nH]c3n2)CC1 [Compound 77] showed an IC50 of under 1000 nM. In the case of CC1(CN)CCN(c2cnc3c(N4CCCc5c(C(F)F)cccc54)n[nH]c3n2)CC1 [Compound 78], the IC50 is reported as under 1000 nM. Work on CNC(=O)c1cccc2c1CCCN2c1n[nH]c2nc(N3CCC(C)(CN)CC3)cnc12 [Compound 79, 1-(6-(4-(Aminomethyl)-4-methylpiperidin-1-yl)-1H-pyrazolo[3,4-b]pyrazin-3-yl)-N-methyl-1,2,3,4-tetrahydroquinoline-5-carboxamide] yielded an IC50 of under 1000 nM. CN(C)C(=O)c1cccc2c1CCCN2c1n[nH]c2nc(N3CCC(C)(CN)CC3)cnc12 [Compound 80, 1-(6-(4-(Aminomethyl)-4-methylpiperidin-1-yl)-1H-pyrazolo[3,4-b]pyrazin-3-yl)-N,N-dimethyl-1,2,3,4-tetrahydroquinoline-5-carboxamide] showed an IC50 of under 1000 nM. COC(=O)c1ccc2c(n1)CCCN2c1n[nH]c2nc(N3CCC(C)(CN)CC3)cnc12 [Compound 81] showed an IC50 of under 1000 nM. NCC1(CO)CCN(c2cnc3c(N4CCCc5ncccc54)n[nH]c3n2)CC1 [Compound 82, (4-(aminomethyl)-1-(3-(3,4-dihydro-1,5-naphthyridin-1(2H)-yl)-1H-pyrazolo[3,4-b]pyrazin-6-yl)piperidin-4-yl)methanol dihydrochloride] showed an IC50 of under 1000 nM. CCCC1CCN(c2n[nH]c3nc(N4CCC(C)(CN)CC4)cnc23)c2ccccc21 (stereo not shown) [Compound 83] showed an IC50 of under 1000 nM. CCC1CCN(c2n[nH]c3nc(N4CCC(C)(CN)CC4)cnc23)c2ccccc21 (stereo not shown) [Compound 84] showed an IC50 of under 1000 nM. CCc1cccc2c1CCCN2c1n[nH]c2nc(N3CCC(C)(CN)CC3)cnc12 [Compound 85] gave an IC50 of under 1000 nM. CC1(CN)CCN(c2cnc3c(N4CCCc5c(C6CC6)cccc54)n[nH]c3n2)CC1 [Compound 86] was tested, and the IC50 was under 1000 nM. Compound CC1(CN)CCN(c2cnc3c(N4CCCc5c(C#N)cccc54)n[nH]c3n2)CC1 [Compound 87] has an IC50 of under 1000 nM. CC1(CN)CCN(c2cnc3c(N4CCC(C)(C)c5ccccc54)n[nH]c3n2)CC1 [Compound 88] gave an IC50 of under 1000 nM. Work on CC(C)C1CCN(c2n[nH]c3nc(N4CCC(C)(CN)CC4)cnc23)c2ccccc21 (stereo not shown) [Compound 89] yielded an IC50 of under 1000 nM. With Cc1ccnc2c1N(c1n[nH]c3nc(N4CCC(C)(CN)CC4)cnc13)CCC2 [Compound 90] the IC50 was 1000 to 10000 nM. CC(C)c1cccc2c1CCCN2c1n[nH]c2nc(N3CCC(C)(CN)CC3)cnc12 [Compound 91] was tested, and the IC50 was under 1000 nM. CC1(CN)CCN(c2cnc3c(N4CCCc5cc(S(C)(=O)=O)ccc54)n[nH]c3n2)CC1 [Compound 92] showed an IC50 of under 1000 nM. In the case of CC1CCN(c2n[nH]c3nc(N4CCC(C)(CN)CC4)cnc23)c2ccc(C#N)cc21 (stereo not shown) [Compound 93], the IC50 is reported as under 1000 nM. CC1(CN)CCN(c2cnc3c(N4CCC(c5ccccc5)c5ccccc54)n[nH]c3n2)CC1 (stereo not shown) [Compound 96] showed an IC50 of under 1000 nM. With CCCC1(CN)CCN(c2cnc3c(N4CCCc5ncccc54)n[nH]c3n2)CC1 [Compound 97, (1-(3-(3,4-dihydro-1,5-naphthyridin-1(2H)-yl)-1H-pyrazolo[3,4-b]pyrazin-6-yl)-4-propylpiperidin-4-yl)methanamine dihydrochloride] the IC50 was under 1000 nM. CCC1(CN)CCN(c2cnc3c(N4CCCc5ncccc54)n[nH]c3n2)CC1 [Compound 98, (1-(3-(3,4-dihydro-1,5-naphthyridin-1(2H)-yl)-1H-pyrazolo[3,4-b]pyrazin-6-yl)-4-ethylpiperidin-4-yl)methanamine dihydrochloride] gave an IC50 of under 1000 nM. Work on CC1(CN)CCN(c2cnc3c(N4CCC(CO)c5ccccc54)n[nH]c3n2)CC1 (stereo not shown) [Compound 99, (1-(6-(4-(Aminomethyl)-4-methylpiperidin-1-yl)-1H-pyrazolo[3,4-b]pyrazin-3-yl)-1,2,3,4-tetrahydroquinolin-4-yl)methanol] yielded an IC50 of under 1000 nM. CNC(=O)C1CCN(c2n[nH]c3nc(N4CCC(C)(CN)CC4)cnc23)c2ccccc21 (stereo not shown) [Compound 100, 1-(6-(4-(Aminomethyl)-4-methylpiperidin-1-yl)-1H-pyrazolo[3,4-b]pyrazin-3-yl)-N-methyl-1,2,3,4-tetrahydroquinoline-4-carboxamide] gave an IC50 of under 1000 nM. COC1(CN)CCN(c2cnc3c(N4CCCc5ncccc54)n[nH]c3n2)CC1 [Compound 101, (1-(3-(3,4-dihydro-1,5-naphthyridin-1(2H)-yl)-1H-pyrazolo[3,4-b]pyrazin-6-yl)-4-methoxypiperidin-4-yl)methanamine] gave an IC50 of under 1000 nM. Work on CC1(CN)CCN(c2cnc3c(N4CCC(C(F)(F)F)c5ccccc54)n[nH]c3n2)CC1 (stereo not shown) [Compound 106] yielded an IC50 of under 1000 nM. With CNC(=O)c1cccc2c1CCN2c1n[nH]c2nc(N3CCC(C)(CN)CC3)cnc12 [Compound 107, 1-(6-(4-(aminomethyl)-4-methylpiperidin-1-yl)-1H-pyrazolo[3,4-b]pyrazin-3-yl)-N-methylindoline-4-carboxamide] the IC50 was under 1000 nM. With CC1(CN)CCN(c2cnc3c(N4CCc5c(C(N)=O)cccc54)n[nH]c3n2)CC1 [Compound 108, 1-(6-(4-(aminomethyl)-4-methylpiperidin-1-yl)-1H-pyrazolo[3,4-b]pyrazin-3-yl)indoline-4-carboxamide] the IC50 was under 1000 nM. CC1CCN(c2n[nH]c3nc(N4CCC(C)(CN)CC4)cnc23)c2ccc(C(N)=O)cc21 (stereo not shown) [Compound 112, 1-(6-(4-(aminomethyl)-4-methylpiperidin-1-yl)-1H-pyrazolo[3,4-b]pyrazin-3-yl)-4-methyl-1,2,3,4-tetrahydroquinoline-6-carboxamide formate] was tested, and the IC50 was under 1000 nM. For CNC(=O)c1ccc2c(c1)CCN2c1n[nH]c2nc(N3CCC(C)(CN)CC3)cnc12 [Compound 113, 1-(6-(4-(aminomethyl)-4-methylpiperidin-1-yl)-1H-pyrazolo[3,4-b]pyrazin-3-yl)-N-methylindoline-5-carboxamide], the IC50 was under 1000 nM. In the case of CC1(CN)CCN(c2cnc3c(N4CCc5cc(C(N)=O)ccc54)n[nH]c3n2)CC1 [Compound 114, 1-(6-(4-(aminomethyl)-4-methylpiperidin-1-yl)-1H-pyrazolo[3,4-b]pyrazin-3-yl)indoline-5-carboxamide], the IC50 is reported as under 1000 nM. For CC1(CN)CCN(c2cnc3c(N4CCC(C#N)c5ccccc54)n[nH]c3n2)CC1 (stereo not shown) [Compound 117], the IC50 was under 1000 nM. CC1(CN)CCN(c2cnc3c(N4CCc5ccccc54)n[nH]c3n2)CC1 [Compound 118] was tested, and the IC50 was under 1000 nM. Work on CC1(CN)CCN(c2cnc3c(N4CCC(O)c5ccccc54)n[nH]c3n2)CC1 (stereo not shown) [Compound 119, 1-(6-(4-(aminomethyl)-4-methylpiperidin-1-yl)-1H-pyrazolo[3,4-b]pyrazin-3-yl)-1,2,3,4-tetrahydroquinolin-4-ol] yielded an IC50 of under 1000 nM. Cc1c(C#N)ccc2c1CCCN2c1n[nH]c2nc(N3CCC(C)(CN)CC3)cnc12 [Compound 120] gave an IC50 of under 1000 nM. In the case of Cn1cc(-c2cccc3c2CCCN3c2n[nH]c3nc(N4CCC(C)(CN)CC4)cnc23)cn1 [Compound 121], the IC50 is reported as under 1000 nM. CC1(CN)CCN(c2cnc3c(N4CCCc5c4ccc(C#N)c5C4CC4)n[nH]c3n2)CC1 [Compound 122] was tested, and the IC50 was under 1000 nM. CC1CN(c2n[nH]c3nc(N4CCC(C)(CN)CC4)cnc23)c2ccccc21 (stereo not shown) [Compound 123] showed an IC50 of under 1000 nM. For CC1(CN)CCN(c2cnc3c(N4CCc5ncccc54)n[nH]c3n2)CC1 [Compound 124], the IC50 was under 1000 nM. CC1(CN)CCN(c2cnc3c(N4CCc5cnccc54)n[nH]c3n2)CC1 [Compound 125] showed an IC50 of 1000 to 10000 nM. CC1(CN)CCN(c2cnc3c(N4CCCc5nc(C#N)ccc54)n[nH]c3n2)CC1 [Compound 126] gave an IC50 of under 1000 nM. CN1CCN(c2n[nH]c3nc(N4CCC(C)(CN)CC4)cnc23)c2ccccc21 [Compound 127] showed an IC50 of under 1000 nM. Work on CC1(CN)CCN(c2cnc3c(N4CCCc5c(Cl)cccc54)n[nH]c3n2)CC1 [Compound 130] yielded an IC50 of under 1000 nM. Cn1cc(-c2c(C#N)ccc3c2CCCN3c2n[nH]c3nc(N4CCC(C)(CN)CC4)cnc23)cn1 [Compound 131] showed an IC50 of under 1000 nM. For CC1(CN)CCN(c2cnc3c(N4CCCc5c4ccnc5Cl)n[nH]c3n2)CC1 [Compound 132], the IC50 was under 1000 nM. With CC1(CN)CCN(c2cnc3c(N4CCc5cc(C#N)ccc54)n[nH]c3n2)CC1 [Compound 133] the IC50 was under 1000 nM. For C[C@H]1Cc2ccccc2N1c1n[nH]c2nc(N3CCC(C)(CN)CC3)cnc12 [Compound 134], the IC50 was under 1000 nM. With C[C@@H]1Cc2ccccc2N1c1n[nH]c2nc(N3CCC(C)(CN)CC3)cnc12 [Compound 135] the IC50 was under 1000 nM.
